Experimental data as given in patent publication US9302999B2, “Substituted triazoles as herbicides” (E. I. DU PONT DE NEMOURS AND COMPANY, priority 2012, dated 2016).

Experiments:
Assay type in all cases: in vivo
[1] = test system: barnyardgrass (Echinochloa crus-galli); assay: Test A pre-/postemergence: barnyardgrass
Summary of the method: (§1)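 Soil medium was loam blended with sand; treatments pre- and postemergence were applied concurrently, postemergence at one- to two-leaf stage. Approximately ten days in greenhouse preceded visual comparison with untreated controls, scored 0 (no effect) to 100 (complete control).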

[2] = test system: crabgrass, large (large crabgrass, Digitaria sanguinalis); assay: Test A pre-/postemergence: crabgrass, large
Summary of the method: as §1

[3] = test system: foxtail, giant (giant foxtail, Setaria faberii); assay: Test A pre-/postemergence: foxtail, giant
Summary of the method: as §1

[4] = test system: morningglory (Ipomoea spp.); assay: Test A pre-/postemergence: morningglory
Summary of the method: as §1

[5] = test system: pigweed (Amaranthus retroflexus); assay: Test A pre-/postemergence: pigweed
Summary of the method: as §1

[6] = test system: velvetleaf (Abutilon theophrasti); assay: Test A pre-/postemergence: velvetleaf
Summary of the method: as §1

[7] = test system: wheat (Triticum aestivum); assay: Test A pre-/postemergence: wheat
Summary of the method: as §1

corn (Zea mays) = assay: Test A pre-/postemergence: corn
Summary of the method: as §1

rice (Oryza sativa) = assay: Test C flooded paddy test: rice; details: scale 0 to 100 (0 no effect, 100 complete control)
Summary of the method: (§2)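 2-leaf stage plants; pots flooded 3 cm above soil; compound applied into paddy water, depth maintained. Greenhouse 13–15 d. Visual rating vs controls, 0–100 (0 = no effect, 100 = complete control); dash = no result.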

[8] = test system: sedge, umbrella (small-flower umbrella sedge, Cyperus difformis); assay: Test C flooded paddy test: sedge, umbrella; details: scale 0 to 100 (0 no effect, 100 complete control)
Summary of the method: as §2

[9] = test system: ducksalad (Heteranthera limosa); assay: Test C flooded paddy test: ducksalad; details: scale 0 to 100 (0 no effect, 100 complete control)
Summary of the method: as §2

[10] = test system: barnyardgrass (Echinochloa crus-galli); assay: Test C flooded paddy test: barnyardgrass; details: scale 0 to 100 (0 no effect, 100 complete control)
Summary of the method: as §2

[11] = Postemergence, 1000 g ai/ha, visual rating on 0 to 100 scale (0 no effect, 100 complete control), approximately ten days
[12] = Preemergence, 1000 g ai/ha, 0 to 100 scale, 0 is no effect, 100 is complete control
[13] = Flood (flooded paddy test), 250 g ai/ha, visual rating after 13 to 15 days
[14] = Postemergence, 125 g ai/ha, 0 to 100 scale, 0 is no effect, 100 is complete control
[15] = Postemergence, 500 g ai/ha, visual rating on 0 to 100 scale (0 no effect, 100 complete control), approximately ten days
[16] = Preemergence, 125 g ai/ha, 0 to 100 scale (0 no effect, 100 complete control)
[17] = Preemergence, 500 g ai/ha, 0 to 100 scale, 0 is no effect, 100 is complete control
[18] = Flood (flooded paddy test), 62 g ai/ha, visual rating after 13 to 15 days
[19] = Flood (flooded paddy test), 125 g ai/ha, visual rating after 13 to 15 days

Cc1nn(-c2ccc(C(F)(F)F)cc2)nc1Cn1nc(C(F)(F)F)cc1C [Compound 134]
Barnyardgrass plant response rating [1, 11]: 30
Plant response rating, Barnyardgrass [1, 12]: 30
Crabgrass, Large plant response rating [2, 11]: 90
Plant response rating, Crabgrass, Large [2, 12]: 100
Foxtail, Giant plant response rating [3, 11]: 50
Plant response rating, Foxtail, Giant [3, 12]: 100
Morningglory plant response rating [4, 11]: 100
Plant response rating, Morningglory [4, 12]: 10
Pigweed plant response rating [5, 11]: 100
Plant response rating, Pigweed [5, 12]: 90
Velvetleaf plant response rating [6, 11]: 50
Plant response rating, Velvetleaf [6, 12]: 0
Wheat plant response rating [7, 11]: 0
Plant response rating, Wheat [7, 12]: 0
Corn plant response rating (corn (Zea mays); [11]): 20
Plant response rating, Corn (corn (Zea mays); [12]): 10
Plant response rating, Rice (rice (Oryza sativa); [13]): 0
Plant response rating, Rice (rice (Oryza sativa); Flood, 62 g ai/ha): 0
Plant response rating, Sedge, Umbrella [8, 13]: 0
Plant response rating, Sedge, Umbrella ([8]; Flood, 62 g ai/ha): 0
Plant response rating, Ducksalad [9, 13]: 0
Plant response rating, Ducksalad ([9]; Flood, 62 g ai/ha): 0
Plant response rating, Barnyardgrass [10, 13]: 15
Plant response rating, Barnyardgrass ([10]; Flood, 62 g ai/ha): 0

COc1nn(-c2ccc(C(F)(F)F)cc2)nc1Cn1nc(C(F)(F)F)cc1C(F)(F)F [Compound 30]
Barnyardgrass plant response rating [1, 14]: 0
Barnyardgrass plant response rating [1, 15]: 0
Plant response rating, Barnyardgrass [1, 16]: 0
Plant response rating, Barnyardgrass [1, 17]: 0
Crabgrass, Large plant response rating [2, 14]: 0
Crabgrass, Large plant response rating [2, 15]: 0
Plant response rating, Crabgrass, Large [2, 16]: 0
Plant response rating, Crabgrass, Large [2, 17]: 0
Foxtail, Giant plant response rating [3, 14]: 0
Foxtail, Giant plant response rating [3, 15]: 0
Plant response rating, Foxtail, Giant [3, 16]: 0
Plant response rating, Foxtail, Giant [3, 17]: 0
Morningglory plant response rating [4, 14]: 0
Morningglory plant response rating [4, 15]: 0
Plant response rating, Morningglory [4, 16]: 0
Plant response rating, Morningglory [4, 17]: 0
Pigweed plant response rating [5, 14]: 0
Pigweed plant response rating [5, 15]: 0
Plant response rating, Pigweed [5, 16]: 0
Plant response rating, Pigweed [5, 17]: 0
Velvetleaf plant response rating [6, 14]: 0
Velvetleaf plant response rating [6, 15]: 0
Plant response rating, Velvetleaf [6, 16]: 0
Plant response rating, Velvetleaf [6, 17]: 0
Wheat plant response rating [7, 14]: 0
Wheat plant response rating [7, 15]: 0
Plant response rating, Wheat [7, 16]: 0
Plant response rating, Wheat [7, 17]: 0
Corn plant response rating (corn (Zea mays); [14]): 0
Corn plant response rating (corn (Zea mays); [15]): 0
Plant response rating, Corn (corn (Zea mays); [16]): 0
Plant response rating, Corn (corn (Zea mays); [17]): 0
Plant response rating, Rice (rice (Oryza sativa); [18]): 0
Plant response rating, Rice (rice (Oryza sativa); [19]): 0
Plant response rating, Rice (rice (Oryza sativa); [13]): 0
Plant response rating, Rice (rice (Oryza sativa); Flood, 31 g ai/ha): 0
Plant response rating, Sedge, Umbrella [8, 18]: 0
Plant response rating, Sedge, Umbrella [8, 19]: 20
Plant response rating, Sedge, Umbrella [8, 13]: 30
Plant response rating, Sedge, Umbrella ([8]; Flood, 31 g ai/ha): 0
Plant response rating, Ducksalad [9, 18]: 0
Plant response rating, Ducksalad [9, 19]: 0
Plant response rating, Ducksalad [9, 13]: 0
Plant response rating, Ducksalad ([9]; Flood, 31 g ai/ha): 0
Plant response rating, Barnyardgrass [10, 18]: 0
Plant response rating, Barnyardgrass [10, 19]: 0
Plant response rating, Barnyardgrass [10, 13]: 0
Plant response rating, Barnyardgrass ([10]; Flood, 31 g ai/ha): 0

FC(F)(F)c1ccc(-n2nc(Br)c(Cc3cccc(C(F)(F)F)c3)n2)cc1 [Compound 123]
Barnyardgrass plant response rating [1, 11]: 10
Barnyardgrass plant response rating [1, 12]: 10
Crabgrass, Large plant response rating [2, 11]: 80
Crabgrass, Large plant response rating [2, 12]: 60
Foxtail, Giant plant response rating [3, 11]: 60
Foxtail, Giant plant response rating [3, 12]: 80
Morningglory plant response rating [4, 11]: 100
Morningglory plant response rating [4, 12]: 0
Pigweed plant response rating [5, 11]: 100
Pigweed plant response rating [5, 12]: 80
Velvetleaf plant response rating [6, 11]: 100
Velvetleaf plant response rating [6, 12]: 10
Wheat plant response rating [7, 11]: 20
Wheat plant response rating [7, 12]: 0
Corn plant response rating (corn (Zea mays); [11]): 40
Corn plant response rating (corn (Zea mays); [12]): 0
Plant response rating, Rice (rice (Oryza sativa); [19]): 0
Plant response rating, Rice (rice (Oryza sativa); [13]): 10
Plant response rating, Rice (rice (Oryza sativa); Flood, 31 g ai/ha): 0
Plant response rating, Rice (rice (Oryza sativa); Flood, 62 g ai/ha): 0
Plant response rating, Sedge, Umbrella [8, 19]: 50
Plant response rating, Sedge, Umbrella [8, 13]: 75
Plant response rating, Sedge, Umbrella ([8]; Flood, 31 g ai/ha): 0
Plant response rating, Sedge, Umbrella ([8]; Flood, 62 g ai/ha): 0
Plant response rating, Ducksalad [9, 19]: 75
Plant response rating, Ducksalad [9, 13]: 75
Plant response rating, Ducksalad ([9]; Flood, 31 g ai/ha): 0
Plant response rating, Ducksalad ([9]; Flood, 62 g ai/ha): 40
Plant response rating, Barnyardgrass [10, 19]: 0
Plant response rating, Barnyardgrass [10, 13]: 0
Plant response rating, Barnyardgrass ([10]; Flood, 31 g ai/ha): 0
Plant response rating, Barnyardgrass ([10]; Flood, 62 g ai/ha): 0

Cc1nn(-c2ccc(C(F)(F)F)cc2)nc1Cn1cnc(C(F)(F)F)n1 [Compound 132]
Barnyardgrass plant response rating [1, 11]: 80
Barnyardgrass plant response rating [1, 12]: 90
Crabgrass, Large plant response rating [2, 11]: 90
Crabgrass, Large plant response rating [2, 12]: 100
Foxtail, Giant plant response rating [3, 11]: 90
Foxtail, Giant plant response rating [3, 12]: 100
Morningglory plant response rating [4, 11]: 100
Morningglory plant response rating [4, 12]: 60
Pigweed plant response rating [5, 11]: 100
Pigweed plant response rating [5, 12]: 100
Velvetleaf plant response rating [6, 11]: 90
Velvetleaf plant response rating [6, 12]: 60
Wheat plant response rating [7, 11]: 30
Wheat plant response rating [7, 12]: 0
Corn plant response rating (corn (Zea mays); [11]): 30
Corn plant response rating (corn (Zea mays); [12]): 0
Plant response rating, Rice (rice (Oryza sativa); [13]): 0
Plant response rating, Rice (rice (Oryza sativa); Flood, 62 g ai/ha): 0
Plant response rating, Sedge, Umbrella [8, 13]: 65
Plant response rating, Sedge, Umbrella ([8]; Flood, 62 g ai/ha): 0
Plant response rating, Ducksalad [9, 13]: 20
Plant response rating, Ducksalad ([9]; Flood, 62 g ai/ha): 0
Plant response rating, Barnyardgrass [10, 13]: 0
Plant response rating, Barnyardgrass ([10]; Flood, 62 g ai/ha): 0
